Source: patent US3982931A, “N,N-di-sec.butyl-benzamide herbicides” (priority 1967, dated 1976)

What was measured:
[1] = tested on: echinocloa crus-galli R.S.; experiment: herbicidal activity, soil treatment one day after sowing; format: in vivo
vicia sativa L. = experiment: as above; format: in vivo
Outline: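 Pre-emergence soil treatment one day after sowing; activity scored visually on a […] scale against untreated control, from slight difference (1) to no germination or total containment at emergence (4); intermediate activity recorded as both classes, preeminent value first.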

zea mais L. (corn) = experiment: activity on agrarian species, soil treatment one day after sowing; format: in vivo; settings: in vivo
From the text: (§1) The infesting species and the agrarian species have been indicated in Table 1 by letters, as follows:
(§2) Method of evaluation of the results (of tests):
(§3) 0 = no activity and no difference with respect to the control;
(§4) 1 slight differences with respect to the control;
(§5) 3 = considerable activity with damages that definitely impair the further development of most of the small plants; an activity degree already useful for practical purposes;
(§6) 4 = maximum of activity with lack of germination or total containment of the small plants in the emerging stage.
(§7) In the case of an intermediate activity between two classes of the scale, both values are recorded with the one which corresponds to the preeminent activity preceding.
(§8) TABLE 2 reports the activity data of other compounds that fall within the class which is the object of this invention.
(§9) TABLE 3 reports data on the herbicidal activity against infesting herbs, while TABLE 4 reports data concerning the activity on useful species of agricultural cultivations. These tables employ the criterion explained previously. The product was spread on the soil one day after sowing, in quantities of 1, 3, 6, 8, 10, 12 and 14 kg/ha.

[2] = tested on: amaranthus retroflexus L.; experiment: herbicidal activity, soil treatment one day after sowing; format: in vivo
[3] = tested on: triticum vulgare L. (wheat); experiment: activity on agrarian species, soil treatment one day after sowing; format: in vivo; settings: in vivo
From the text: as §1
N = triticum vulgare L. (wheat)
as §2, §3, §4, §5, §6, §7, §8, §9

artemisia vulgaris L. = experiment: herbicidal activity, soil treatment one day after sowing; format: in vivo
setaria glauca L. = experiment: as above; format: in vivo
avena sativa (oats) = experiment: activity on agrarian species, soil treatment one day after sowing; format: in vivo, Avena sativa L.; settings: in vivo
From the text: as §1, §2, §3, §4, §5, §6, §7, §8, §9

oryza sativa L. (rice) = experiment: as above; format: in vivo; settings: in vivo
From the text: as §1
P = oryza sativa L. (rice)
as §2, §3, §4, §5, §6, §7, §8, §9

pisum sativum L. (pea) = experiment: as above; format: in vivo; settings: in vivo
From the text: as §1
L = pisum sativum L. (pea)
as §2, §3, §4, §5, §6, §7, §8
TABLE 3 reports data on the herbicidal activity against infesting herbs, while TABLE 4 reports data concerning the activity on useful species of agricultural cultivations. These tables employ the criterion explained previously. […]

[4] = tested on: beta vulgaris L. (sugar-beet); experiment: as above; format: in vivo; settings: in vivo
From the text: as §1
H = beta vulgaris L. (sugar-beet)
as §2, §3, §4, §5, §6, §7, §8, §9

chenopodium album L. = experiment: herbicidal activity, soil treatment one day after sowing; format: in vivo
solanum Lycopersicum L. = experiment: activity on agrarian species, soil treatment one day after sowing; format: in vivo; settings: in vivo
From the text: as §1
M = solanum Lycopersicum L.
as §2, §3, §4, §5, §6
In the case of an intermediate activity between two classes of the scale, both values are recorded with the one which corresponds to the preeminent activity preceding. […]

[5] = tested on: phaseolus vulgaris (bean); experiment: as above; format: in vivo, Phaseolus vulgaris L.; settings: in vivo
From the text: as §1
I = phaseolus vulgaris (bean)
as §2, §3, §4, §5, §6, §7, §8, §9

Row | SMILES | activity on D, 0-4 scale ([1]; 2 kg/ha) | activity on D, 0-4 scale ([1]; 4 kg/ha) | activity on D, 0-4 scale ([1]; 6 kg/ha) | activity on F, 0-4 scale (vicia sativa L.; 2 kg/ha) | activity on O, 0-4 scale (zea mais L. (corn)) | activity on A, 0-4 scale ([2]; 2 kg/ha) | activity on A, 0-4 scale ([2]; 4 kg/ha) | activity on N, 0-4 scale [3] | activity on B, 0-4 scale (artemisia vulgaris L.; 6 kg/ha) | activity on E, 0-4 scale (setaria glauca L.; 2 kg/ha) | activity on E, 0-4 scale (setaria glauca L.; 6 kg/ha) | activity on G, 0-4 scale (avena sativa (oats)) | activity on P, 0-4 scale (oryza sativa L. (rice)) | activity on L, 0-4 scale (pisum sativum L. (pea)) | activity on C, 0-4 scale (chenopodium album L.; 2 kg/ha) | activity on C, 0-4 scale (chenopodium album L.; 6 kg/ha) | activity on F, 0-4 scale (vicia sativa L.; 6 kg/ha) | activity on A, 0-4 scale ([2]; 6 kg/ha) | activity on M, 0-4 scale (solanum Lycopersicum L.) | activity on I, 0-4 scale [5] | further results
1 | CCC(C)N(C(=O)c1cccc(Br)c1)C(C)CC (centres unmarked) [PA337/3/Br, 3-bromo-N,N-di-sec.butyl-benzamide] | 2 | 4 | 4 | 0-1 | 0 | 1 | 2-3 | 0 | 3 | 2-3 | 4 | 0 | 0 | 0 | 1 | 4 |  |  |  |  | activity on B, 0-4 scale (artemisia vulgaris L.; 4 kg/ha): 1; activity on E, 0-4 scale (setaria glauca L.; 4 kg/ha): 4; activity on H, 0-4 scale [4]: 1; activity on C, 0-4 scale (chenopodium album L.; 4 kg/ha): 3
2 | CCCCN(C(=O)c1ccc(Cl)c(Cl)c1)C(C)CC (centres unmarked) [PA514, 3,4-dichloro-N-n.butyl,N-sec.butyl-benzamide] | 1 | 2-3 | 3 |  | 0 |  |  | 0 | 0-1 | 2 |  | 0 | 0 | 0 |  | 2 | 0-1 | 1 | 0 | 0 | activity on E, 0-4 scale (setaria glauca L.; 4 kg/ha): 3
3 | CCC(C)N(C(=O)c1ccc(C)c(Cl)c1)C(C)CC (centres unmarked) [PA445, 3-chloro,4-methyl-N,N-di-sec.butyl-benzamide] | 3 | 3-4 | 4 | 0 | 0 | 0-1 | 1 | 0 | 3-4 | 3-4 | 4 | 0 | 0 | 0 | 1 | 4 | 0-1 | 2 | 0 | 0 | activity on F, 0-4 scale (vicia sativa L.; 4 kg/ha): 0; activity on B, 0-4 scale (artemisia vulgaris L.; 2 kg/ha): 1; activity on B, 0-4 scale (artemisia vulgaris L.; 4 kg/ha): 2; activity on C, 0-4 scale (chenopodium album L.; 4 kg/ha): 2-3
4 | CCN(CC)C(=O)c1ccc(Cl)c(Cl)c1 [PA61, 3,4-dichloro-N,N-diethyl-benzamide, reference compound] | 1 |  | 3 | 2-3 | 2 | 3 |  | 1 | 3-4 | 2 |  | 1 | 3 | 1 | 3 | 3 | 3 | 3-4 | 3-4 | 1 | activity on B, 0-4 scale (artemisia vulgaris L.; 2 kg/ha): 3; activity on H, 0-4 scale [4]: 3-4
5 | CCC(C)N(C(=O)c1cc(Cl)ccc1Cl)C(C)CC (centres unmarked) [PA412, 2,5-dichloro-N,N-di-sec.butyl-benzamide] | 3 |  | 4 |  | 0 |  |  | 0 | 2 | 3 | 4 | 0 | 0 | 0 |  | 2-3 | 0 | 3 | 1 | 0 | activity on D, 0-4 scale ([1]; 1 kg/ha): 1-2; activity on D, 0-4 scale ([1]; 3 kg/ha): 3-4; activity on F, 0-4 scale (vicia sativa L.; 3 kg/ha): 0; activity on A, 0-4 scale ([2]; 3 kg/ha): 2; activity on B, 0-4 scale (artemisia vulgaris L.; 3 kg/ha): 1; activity on E, 0-4 scale (setaria glauca L.; 1 kg/ha): 3; activity on E, 0-4 scale (setaria glauca L.; 3 kg/ha): 4; activity on C, 0-4 scale (chenopodium album L.; 3 kg/ha): 1-2
6 | CCC(C)N(C(=O)c1c(Cl)cccc1Cl)C(C)CC (centres unmarked) [PA227, 2,6-dichloro-N,N-di-sec.butyl-benzamide] | 2 | 3 | 4 | 0 | 0 | 1-2 | 3 | 0 | 2 | 2 | 4 | 0 | 0 | 0 | 1 | 3-4 | 0 |  | 1 | 0 | activity on F, 0-4 scale (vicia sativa L.; 4 kg/ha): 0; activity on B, 0-4 scale (artemisia vulgaris L.; 2 kg/ha): 0-1; activity on B, 0-4 scale (artemisia vulgaris L.; 4 kg/ha): 1-2; activity on E, 0-4 scale (setaria glauca L.; 4 kg/ha): 3; activity on H, 0-4 scale [4]: 2; activity on C, 0-4 scale (chenopodium album L.; 4 kg/ha): 2
7 | CCC(C)N(C(=O)c1cccc(I)c1)C(C)CC (centres unmarked) [PA491, 3-iodo-N,N-di-sec.butyl-benzamide] | 3 |  | 4 | 0 | 0 | 1 | 1-2 | 0 | 4 | 3 | 4 | 0 | 0 | 0 | 2 | 3-4 | 1 | 3-4 |  | 0 | activity on F, 0-4 scale (vicia sativa L.; 4 kg/ha): 0; activity on B, 0-4 scale (artemisia vulgaris L.; 2 kg/ha): 1; activity on B, 0-4 scale (artemisia vulgaris L.; 4 kg/ha): 3; activity on C, 0-4 scale (chenopodium album L.; 4 kg/ha): 2-3
